Source: patent US9353144B2, “Vascular leakage inhibitor” (INDUSTRY-ACADEMIC COOPERATION FOUNDATION, YONSEI UNIVERSITY, priority 2011, dated 2016)

Assays:
[1] = system: HRECs (Human Retinal Endothelial Cells); conditions: cited from earlier work; for ability to inhibit apoptosis (derivatives of previous researches, control groups): obtained in the previous researches by the inventors (Korean Patent Application Publication No. 2011-0047170); for ability to inhibit apoptosis, comparison in the previous researches: relative to Rk1 or to other earlier derivatives
[2] = system: HRECs (Human Retinal Endothelial Cells); assay: Screening based on change in cytoskeleton: VEGF-induced actin stress fibers, rhodamine phalloidin staining; format: cell-based; conditions: for ability to inhibit the formation of actin stress fibers induced by VEGF: confluent HRECs pretreated with 10 μg/mL compound for 1 hour before 20 ng/ml VEGF, FIGS. 4 and 5; for abilities to inhibit the formation of actin stress fibers induced by VEGF and maintain the cortical actin ring structure, ranking: confluent HRECs, pretreated 1 hour, 20 ng/ml VEGF
Method: Confluent HRECs were pretreated with the compounds (10 μg/mL) for 60 minutes before treating with 20 ng/mL VEGF. The cells were then stained with rhodamine phalloidin.
(§1) Human retinal endothelial cells (HRECs) purchased from Cell Systems (USA) were seeded on a 100 mm culture dish containing EGM medium (Life Technologies, USA) containing 20% (w/v) fetal bovine serum (FBS, HyClone, Canada), 100 units/mL penicillin (Invitrogen, USA), 100 μg/mL streptomycin (Invitrogen, USA), 3 ng/mL fibroblast growth factor (Upstate Biotechnology, USA) and 5 units/mL heparin and cultured in a 5% CO2 incubator at 37° C.
It is known that the change in the actin structure of the cytoskeleton is closely related with the permeability of vascular endothelial cells. Increased permeability of vascular endothelial cells leads to an increase in actin stress fibers and a decrease in cortical actin ring structures. Based on this, the ability to inhibit vascular endothelial permeability of the synthesized derivatives of Rk1 was screened. Confluent HRECs were pretreated with […] the synthesized compounds for 1 hour before the treatment with 20 ng/ml VEGF (Upstate Biotechnology). Then, the cells were fixed with 4% paraformaldehyde for 20 minutes at room temperature, and washed 3 times with PBS (pH 7.4). Then, the cells were permeabilized with 0.1% Triton X-100/PBS, and reacted with 0.1 mg/ml rhodamine phalloidin (Molecular Probes) for 1 hour. Then, the cells were observed under a fluorescence microscope (Olympus).

[3] = system: HRECs (Human Retinal Endothelial Cells); assay: Ability to inhibit apoptosis of Sac-1009, Sac-1104 and Sac-1019 according to concentration (serum removal, MTT assay); format: cell-based; conditions: for inhibition of apoptosis of HRECs, concentration dependence: serum-free EGM, 0, 0.1, 1, 5 and 10 μg/ml; for inhibition of apoptosis of HRECs, concentration dependence / concentration of the most effective ability to inhibit apoptosis: MTT after 48 hours, FIG. 3; for concentration of the most effective ability to inhibit apoptosis: serum-free EGM, tested 0-10 μg/ml; for cell viability of HRECs in a serum depletion environment: summary of test examples 1 and 2
Method: HRECs (3×10^5 cells/well) were seeded on a 24-well plate in EGM medium containing 20% fetal bovine serum. The next day, the cells were transferred to a serum depletion EGM medium containing Sac-1009, Sac-1104 or Sac-1019. Sac-1009, Sac-1104 and Sac-1019 were added into the medium at a concentration of 0, 0.1, 1, 5 or 10 μg/mL, respectively. Cell viability was determined by MTT assay 48 hours later.
as §1
After apoptosis was induced by removing serum from the medium of vascular endothelial cells, Sac-1009, Sac-1104, and Sac-1019 were applied to cells to measure the ability to inhibit apoptosis. Vascular endothelial cells HRECs (3×10^5 cells/well) were plated on a 24-well plate in which 1 ml of EGM medium containing 20% fetal bovine serum was present. The next day, the cells were transferred to serum-free EGM media containing Sac-1009, Sac-1104, and Sac-1019. Sac-1009, Sac-1104, and Sac-1019 were added at concentrations of 0, 0.1, 1, 5, and 10 μg/ml. After 48 hours, cell viability was determined by MTT assay.

[4] = system: HRECs (Human Retinal Endothelial Cells); assay: Screening of synthesized derivatives for ability to inhibit serum depletion-induced vascular endothelial cell apoptosis (MTT assay, cell morphology); format: cell-based; conditions: serum-free, 10 μg/ml; for ability to inhibit apoptosis, ranking among synthetic derivatives and control groups: comparison with control groups; for ability to inhibit apoptosis compared with Sac-1004: relative to control Sac-1004
Method: FIGS. 1a-1c and FIGS. 2a-2c show the result of screening Rk1 analogs that protect HRECs (Human Retinal Endothelial Cells) from serum depletion-induced apoptosis. HRECs (3×10^5 cells/well) were seeded on a 24-well plate in EGM9 medium containing 20% fetal bovine serum. The next day, the cells were transferred to a medium containing 10 μg/mL of the synthesized compound. Cell viability was determined by MTT assay 48 hours later. […] Con is indicative of cells treated with DMSO.
as §1
Based on the previous researches conducted by the present inventors, synthesized derivatives of Rk1 having a steroid backbone and having an ability to inhibit vascular endothelial cell apoptosis were screened. Vascular endothelial cells HRECs (3×10^5 cells/well) were plated on a 24-well plate in which 1 ml of EGM medium containing 20% fetal bovine serum was present. The next day, the cells were transferred to serum-free EGM media containing 10 μg/ml of the compounds synthesized in Synthetic Examples 1 and 2. After 24 hours, cell viability was determined by MTT assay (Mosmann T, Journal of Immunological Methods 65(1-2):5563(1983); Cory A H, et al., Cancer Communications 3(7):20712(1991)).

Row | Structure (SMILES) | ability to inhibit apoptosis (derivatives of previous researches, control groups) [1] | ability to inhibit apoptosis, comparison in the previous researches [1] | ability to inhibit the formation of actin stress fibers induced by VEGF [2] | abilities to inhibit the formation of actin stress fibers induced by VEGF and maintain the cortical actin ring structure, ranking [2] | inhibition of apoptosis of HRECs, concentration dependence [3] | concentration of the most effective ability to inhibit apoptosis [3] [µg/mL] | cell viability of HRECs in a serum depletion environment [3] | ability to inhibit apoptosis, ranking among synthetic derivatives and control groups [4] | ability to inhibit apoptosis compared with Sac-1004 [4]
1 | CC(=O)OCC1OC(OC2CCC3(C)C(=CCC4C3CCC3(C)C(C(C)CCCC(C)C)CCC43)C2)C=CC1OC(C)=O (stereo not drawn) [Sac-0601] | having an ability to inhibit apoptosis | equivalent to that of Rk1 | – | – | – | – | – | – | –
2 | COC(=O)CCC/C=C(\C)[C@H]1CCC2C3CC=C4C[C@@H](OC5C=C[C@H](OC(C)=O)[C@@H](COC(C)=O)O5)CC[C@]4(C)C3CC[C@@]21C (stereo partly drawn) [Sac-1004] | having an ability to inhibit apoptosis | the most excellent | – | – | – | – | – | – | –
3 | CC(=O)OC[C@H]1OC(O[C@H]2CC[C@@]3(C)C(=CCC4C3CC[C@@]3(C)C4CC[C@@H]3/C(C)=N/OC3CCCC3)C2)C=C[C@@H]1OC(C)=O (stereo partly drawn) [Sac-1019] | – | – | inhibit the formation of actin stress fibers induced by VEGF | the most excellent | concentration-dependent manner | 10 | increase cell viability | the most excellent | equivalent to that of Sac-1004
4 | CC(=O)OC[C@H]1OC(O[C@H]2CC[C@@]3(C)C(=CCC4C3CC[C@@]3(C)C4CC[C@@H]3/C(C)=N/OC3C=CCCC3)C2)C=C[C@@H]1OC(C)=O (stereo partly drawn) [Sac-1104] | – | – | inhibit the formation of actin stress fibers induced by VEGF | the most excellent | concentration-dependent manner | 10 | increase cell viability | the most excellent | equivalent to that of Sac-1004
